Among the data in patent US20080188506A1, “SPIROINDOLINONE DERIVATIVES” (priority 2007, published 2008) are IC50 values, retold here.

This assay deals with interaction between p53 and MDM2 proteins (recombinant GST-tagged MDM2 / p53 peptide) (Homo sapiens, UniProt Q00987). The experiment in a line: HTRF assay of inhibition of the p53-MDM2 interaction (GST-MDM2 / biotinylated p53 peptide). The format is binding. The settings on record: 0.2% BSA, 37° C. 1 h. On the procedure: The ability of the compounds to inhibit the interaction between p53 and MDM2 proteins was measured by an HTRF (homogeneous time-resolved fluorescence) assay in which recombinant GST-tagged MDM2 binds to a peptide that resembles the MDM2-interacting region of p53 (Lane et al.). Binding of GST-MDM2 protein and p53-peptide (biotinylated on its N-terminal end) is registered by the FRET (fluorescence resonance energy transfer) between Europium (Eu)-labeled anti-GST antibody and streptavidin-conjugated Allophycocyanin (APC).
Test is performed in black flat-bottom 384-well plates (Costar) in a total volume of […] containing:90 nM biotinylate peptide, 160 ng/ml GST-MDM2, 20 nM streptavidin-APC (PerkinElmerWallac), 2 nM Eu-labeled anti-GST-antibody (PerkinElmerWallac), 0.2% bovine serum albumin (BSA), 1 mM dithiothreitol (DTT) and 20 mM […] (TBS) buffer as follows: Add 10 uL of GST-MDM2 (640 ng/ml working solution) in reaction buffer to each well. Add 10 uL diluted compounds (1:5 dilution in reaction buffer) to each well, mix by shaking. Add 20 uL biotinylated p53 peptide (180 nM working solution) in reaction buffer to each well and mix on shaker. Incubate at 37° C. for 1 h. Add 20 uL streptavidin-APC and Eu-anti-GST antibody mixture (6 nM Eu-anti-GST and 60 nM streptavidin-APC working solution) in TBS buffer with 0.2% BSA, shake at room temperature for 30 minutes and read using a TRF-capable plate reader at 665 and 615 nm (Victor 5, Perkin ElmerWallac). If not specified, the reagents were purchased from Sigma Chemical Co.

interaction between p53 and MDM2 proteins (recombinant GST-tagged MDM2 / p53 peptide), sequence (Q00987 whole entry): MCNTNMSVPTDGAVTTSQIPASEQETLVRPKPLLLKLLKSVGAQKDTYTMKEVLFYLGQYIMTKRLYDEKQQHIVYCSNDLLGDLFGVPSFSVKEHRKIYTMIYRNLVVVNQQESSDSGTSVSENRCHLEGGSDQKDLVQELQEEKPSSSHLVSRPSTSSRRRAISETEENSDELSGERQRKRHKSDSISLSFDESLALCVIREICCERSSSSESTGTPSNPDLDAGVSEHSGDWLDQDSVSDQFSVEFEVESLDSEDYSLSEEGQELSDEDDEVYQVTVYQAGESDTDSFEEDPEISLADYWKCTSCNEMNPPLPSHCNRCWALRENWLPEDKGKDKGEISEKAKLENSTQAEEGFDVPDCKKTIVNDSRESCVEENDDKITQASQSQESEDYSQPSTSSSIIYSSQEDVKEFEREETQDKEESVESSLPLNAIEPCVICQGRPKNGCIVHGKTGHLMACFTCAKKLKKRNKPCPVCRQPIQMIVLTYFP

Regarding `COc1cccc([C@H]2NCC[C@@H](c3cccc(Cl)c3)[C@]23C(=O)Nc2cc(Cl)ccc23)c1` (racemic) [Example 8c, racemic (2′R, 3R, 4′S)-6-chloro-4′-(3-chlorophenyl)-2′-(3-methoxyphenyl) spiro[3H-indole-3,3′-piperidine]-2(1H)-one], the concentration for half-maximal inhibition (IC50) (in general, the concentration that gives 50% inhibition) turned out to be 5.21 µM.

Regarding `O=C1Nc2cc(Cl)ccc2[C@]12[C@@H](c1ccccc1C(F)(F)F)NCC[C@H]2c1cccc(Cl)c1` (racemic) [Example 11c], the concentration for half-maximal inhibition (IC50) turned out to be 6.95 µM. Turning to `COc1ccc(F)cc1[C@H]1NCC[C@@H](c2cccc(Cl)c2)[C@]12C(=O)Nc1cc(Cl)ccc12` (racemic) [Example 16c, racemic (2′R, 3R, 4′S)-6-chloro-4′-(3-chlorophenyl)-2′-(5-fluoro-2-methoxyphenyl) spiro[3H-indole-3,3′-piperidine]-2(1H)-one], the IC50 was 2.31 µM.

Regarding `C=C(CC(C)C)[C@H]1n2cnnc2C[C@@H](c2cccc(Cl)c2)[C@]12C(=O)Nc1cc(Cl)ccc12` (racemic) [Example 44h], the IC50 stood at 1.03 µM.
